Data reported in patent publication US20220195384A1, “COMPOSITION FOR PROMOTING PRODUCTION OF STEM CELL-DERIVED EXOSOMES AND INCREASING STEMNESS” (BREXOGEN INC., priority 2019, published 2022).

Legend:
Type in all cases: cell-based
[1] = tested on: primary umbilical cord-derived mesenchymal stem cells; assay: Stem cell stemness: colony formation (CFU-F, crystal violet) after pretreatment; conditions: for colonies formed (each 50 or more cells): 1,000 cells/dish, 21 days; for CFU-F increase: vs non-treated
Method: (§1) In a culture medium [high glucose DMEM (Gibco, Cat no. 11995-065); 10% fetal bovine serum (HyClone), 1% MEM non-essential amino acids solution (100×) (Gibco, Cat no. 11140-050)] containing 20 nM of exendin-4, primary umbilical cord-derived mesenchymal stem cells (ATCC No. PCS-500-010; Lot No. 63822428) were cultured for one week.
as §1, with “10” for “20”, “PMA,” for “exendin-4,”
as §1, with “10 ng/mL interferon-γ,” for “20 nM of exendin-4,”
as §1, with “10 μM” for “20 nM”, “tetrandrine,” for “exendin-4,”
as §1, with “10 μg/mL hyaluronic acid,” for “20 nM of exendin-4,”
as §1, with “30” for “20”, “substance P,” for “exendin-4,”
as §1, with “10” for “20”, “resveratrol,” for “exendin-4,”
as §1, with “10 μM” for “20 nM”, “lanifibranor,” for “exendin-4,”
Mesenchymal stem cells and the exendin-4-pretreated mesenchymal stem cells of the Example were each seeded at a density of 1,000 cells/dish into 100-mm cell culture dishes containing […] of a culture medium [high glucose DMEM (Gibco, Cat no. 11995-065), 10% fetal bovine serum (HyClone), 1% MEM non-essential amino acids solution (100×) (Gibco, Cat no. 11140-050)] per dish and cultured for 21 days. The cell-attached dishes were washed twice with PBS, followed by fixation with 95% methanol at room temperature for about 2 min. The fixed cells were washed three times with PBS and stained with 0.5% crystal violet [(sigma, C-3886, USA) […], methanol 100 ml] for 5 min. After water washing and drying at room temperature, colonies, each composed of 50 or more cells, were counted for comparison.
Mesenchymal stem cells and the PMA-pretreated mesenchymal stem cells of the Example were each seeded at a density of 1,000 cells/dish into 100-mm cell culture dishes containing […] of a culture medium [high glucose DMEM (Gibco, Cat no. 11995-065), 10% fetal bovine serum (HyClone), 1% MEM non-essential amino acids solution (100×) (Gibco, Cat no. 11140-050)] per dish and cultured for 21 days. The cell-attached dishes were washed twice with PBS, followed by fixation with 95% methanol at room temperature for about 2 min. […]

[2] = tested on: primary umbilical cord-derived mesenchymal stem cells; assay: Content of exosomal protein (Bradford analysis, 595 nm); conditions: for Exosomal protein, yield per 10^6 cells: then 72 h exosome-free FBS medium
Method: as §1
(§2) After completion of culturing, the mesenchymal stem cells pretreated with exendin-4 were washed and additionally cultured for 72 hours in a culture medium supplemented with 10% fetal bovine serum (FBS) free of exosomes. The reason of employing exosome-free FBS was to prevent FBS-derived exosomes other than those secreted from the cells from being incorporated because generally used FBS contained a large amount of exosomes derived from bovine serum.
(§3) After 72 hours of culturing, the culture medium in which the pretreated mesenchymal stem cells were cultured was taken and centrifuged at 300×g for 10 min to remove residual cells and cell debris. The supernatant was filtered through a 0.22 μm filter, followed by centrifugation at 10,000×g and 4° C. for 70 min in a high-speed centrifuge. The supernatant thus obtained was subjected again to ultracentrifugation at 100,000×g and 4° C. for 90 min. The exosomes obtained as a pellet were diluted in PBS (phosphate buffered saline) before use in the following experiments.
as §1, with “10” for “20”, “PMA,” for “exendin-4,”
as §2, with “PMA” for “exendin-4”
as §1, with “10 ng/mL interferon-γ,” for “20 nM of exendin-4,”
as §2, with “interferon-γ” for “exendin-4”
as §1, with “10 μM” for “20 nM”, “tetrandrine,” for “exendin-4,”
as §2, with “tetrandrine” for “exendin-4”, “serum. […]” for “serum.”

[3] = tested on: primary umbilical cord-derived mesenchymal stem cells; assay: Stem cell proliferation (CCK, absorbance 450 nm) after pretreatment; conditions: 24 h culture, CCK 4 h
Method: as §1
as §1, with “10” for “20”, “PMA,” for “exendin-4,”
as §1, with “10 ng/mL interferon-γ,” for “20 nM of exendin-4,”
as §1, with “10 μM” for “20 nM”, “tetrandrine,” for “exendin-4,”
as §1, with “10 μg/mL hyaluronic acid,” for “20 nM of exendin-4,”
as §1, with “30” for “20”, “substance P,” for “exendin-4,”
as §1, with “10” for “20”, “resveratrol,” for “exendin-4,”
as §1, with “10 μM” for “20 nM”, “lanifibranor,” for “exendin-4,”
(§4) Mesenchymal stem cells and the exendin-4-pretreated mesenchymal stem cells of the Example were each seeded at a density of 3,000 cells/well into 96-well plates containing 100 μL of a culture medium [high glucose DMEM (Gibco, Cat no. 11995-065), 10% fetal bovine serum (HyClone), 1% MEM non-essential amino acids solution (100×) (Gibco, Cat no. 11140-050)] per well and cultured for 24 hours in a CO2 incubator. Then, CCK solution (10 μL/well) was added, and incubation was continued for 4 hours in the CO2 incubator, followed by reading absorbance at a wavelength of 450 nm (420-480 nm) to determine proliferation.
as §4, with “PMA-pretreated” for “exendin-4-pretreated”, “proliferation. […]” for “proliferation.”

[4] = tested on: primary umbilical cord-derived mesenchymal stem cells; assay: Number of exosomes by nanoparticle tracking assay (NanoSight NS300); conditions: for No. of exosome particles, yield per 10^6 cells: then 72 h exosome-free FBS medium
Method: as §1, §2, §3
as §1, with “10” for “20”, “PMA,” for “exendin-4,”
as §2, with “PMA” for “exendin-4”
as §1, with “10 ng/mL interferon-γ,” for “20 nM of exendin-4,”
as §2, with “interferon-γ” for “exendin-4”
as §1, with “10 μM” for “20 nM”, “tetrandrine,” for “exendin-4,”
as §2, with “tetrandrine” for “exendin-4”, “serum. […]” for “serum.”

[5] = tested on: primary umbilical cord-derived mesenchymal stem cells; assay: Content of exosomal RNA (NanoDrop); conditions: for Exosomal RNA, yield per 10^6 cells: then 72 h exosome-free FBS medium
Method: as §1, §2, §3
as §1, with “10” for “20”, “PMA,” for “exendin-4,”
as §2, with “PMA” for “exendin-4”
as §1, with “10 ng/mL interferon-γ,” for “20 nM of exendin-4,”
as §2, with “interferon-γ” for “exendin-4”
as §1, with “10 μM” for “20 nM”, “tetrandrine,” for “exendin-4,”
as §2, with “tetrandrine” for “exendin-4”, “serum. […]” for “serum.”

[6] = 20 nM exendin-4 pretreatment one week
[7] = 10 μM tetrandrine pretreatment one week

| Compound | colonies formed (each 50 or more cells) ([1]; 20 nM exendin-4 pretreatment one week, non-treated 28.6) | CFU-F increase [1, 6] | fold greater exosomal proteins than non-treated mesenchymal stem cells [2, 6] | Exosomal protein, yield per 10^6 cells ([2]; 20 nM exendin-4 pretreatment one week, non-treated 2.00) | increase in proliferation relative to non-treated mesenchymal stem cells [3, 6] | proliferation ratio relative to non-treated mesenchymal stem cells (1) [3, 6] | fold more exosomes than non-treated mesenchymal stem cells [4, 6] | No. of exosome particles, yield per 10^6 cells ([4]; 20 nM exendin-4 pretreatment one week, non-treated 2.30) | fold greater exosomal RNA than non-treated mesenchymal stem cells [5, 6] | Exosomal RNA, yield per 10^6 cells ([5]; 20 nM exendin-4 pretreatment one week, non-treated 31.00) | colonies formed (each 50 or more cells) ([1]; 10 μM tetrandrine pretreatment one week, non-treated 28.7) | CFU-F increase [1, 7] | fold greater exosomal proteins than non-treated mesenchymal stem cells [2, 7] | Exosomal protein, yield per 10^6 cells ([2]; 10 μM tetrandrine pretreatment one week, non-treated 2.0) | increase in proliferation relative to non-treated mesenchymal stem cells [3, 7] | proliferation ratio relative to non-treated mesenchymal stem cells (1) [3, 7] | fold more exosomes than non-treated mesenchymal stem cells [4, 7] | No. of exosome particles, yield per 10^6 cells ([4]; 10 μM tetrandrine pretreatment one week, non-treated 2.3) | fold greater exosomal RNA than non-treated mesenchymal stem cells [5, 7] | Exosomal RNA, yield per 10^6 cells ([5]; 10 μM tetrandrine pretreatment one week, non-treated 31.0) |
| --- | --- | --- | --- | --- | --- | --- | --- | --- | --- | --- | --- | --- | --- | --- | --- | --- | --- | --- | --- | --- |
| exendin-4 | 185 colonies | about 647% | about 5.4 fold | 10.69 μg | about 340% | 3.4 | about 5.85 fold | 13.45 10^9 | about 5.6 fold | 174.34 ng | – | – | – | – | – | – | – | – | – | – |
| COc1ccc2cc1Oc1ccc(cc1)C[C@H]1c3cc(c(OC)cc3CCN1C)Oc1c(OC)c(OC)cc3c1[C@H](C2)N(C)CC3 [tetrandrine] | – | – | – | – | – | – | – | – | – | – | 121.3 colonies | about 423% | about 4.5 fold | 9.42 ug | about 260% | 2.6 | about 4.3 fold | 9.84 10^9 | about 4.4 fold | 136.0 ng |
